Like-named read-outs stand apart in the source and are kept apart here.
What was measured:
[1] = system: lung adenocarcinoma A549 cells; experiment: MTT antiproliferative assay, A549; type: cell-based, human; conditions: MTT assay, 24 h exposure, triplicate, read-out: IC50 A549
Protocol: (§1) The SGC-7901, A549 and HT-1080 cell lines were purchased from the American Type Culture Collection (ATCC, Manassas, VA, USA). […] Briefly, approximately 3 × 10^4 cells were seeded in a 96-well plate. After 24 h of incubation at 37 °C, cells were exposed to compounds of differing concentrations for 24 h. After treatment, cells were washed with 1X PBS followed by addition of 100 µL of 0.05% MTT reagent to each well, followed by incubation for 4 h at 37 °C. After incubation, the supernatant from each well was carefully removed and the formazan crystals were dissolved in 100 µL of DMSO. The colour density was measured spectrophotometrically at 490 nm using a microplate reader (SpectraMax Plus384, Molecular Devices Corp., USA). The data were calculated and plotted as percent viability compared to control.
as §1

[2] = system: gastric adenocarcinoma SGC-7901 cells; experiment: MTT antiproliferative assay, SGC-7901; type: cell-based, human; conditions: MTT assay, 24 h exposure, triplicate, read-out: IC50 SGC-7901
Protocol: as §1, §1

[3] = system: fibrosarcoma HT-1080 cells; experiment: MTT antiproliferative assay, HT-1080; type: cell-based, human; conditions: MTT assay, 24 h exposure, triplicate, read-out: IC50 HT-1080
Protocol: as §1, §1

[4] = system: SGC-7901, A549 and HT-1080 cell lines; experiment: MTT antiproliferative assay, span over the three cell lines; type: cell-based, human; conditions: MTT assay
Protocol: as §1, §1

Row | Structure (SMILES) | IC50 ([1]; Homo sapiens, A549) [µM] | melting point [°C] | IC50 ([2]; Homo sapiens, SGC-7901) [µM] | IC50 ([3]; Homo sapiens, HT-1080) [µM] | IC50 [1] [µM] | IC50 [2] [µM] | IC50 [3] [µM] | IC50 ([4]; range over SGC-7901, A549 and HT-1080, read-out: IC50 range against the three human cancer cell lines) [µM] | antiproliferative activity in words ([4]; SGC-7901, A549 and HT-1080)
1 | COc1ccc(-c2nnc3n2N=C(c2ccc(F)cc2)CS3)c(OC)c1OC [Compound 4a, 3-(2,3,4-Trimethoxyphenyl)-6-(4-fluorophenyl)-7H-[1,2,4]triazolo[3,4-b][1,3,4]thiadiazine] | 21.2 | 92 to 94 | 32.6 | 31.3 |  |  |  |  | 
2 | COc1ccc(-c2nnc3n2N=C(c2ccc(Cl)cc2)CS3)c(OC)c1OC [Compound 4b, 3-(2,3,4-Trimethoxyphenyl)-6-(4-chlorophenyl)-7H-[1,2,4]triazolo[3,4-b][1,3,4]thiadiazine] | 23.2 | 88 to 90 | 24.5 | 24.7 |  |  |  |  | 
3 | COc1ccc(C2=Nn3c(nnc3-c3ccc(OC)c(OC)c3OC)SC2)cc1F [Compound 4h, 3-(2,3,4-Trimethoxyphenyl)-6-(3-fluoro-4-methoxyphenyl)-7H-[1,2,4]triazolo[3,4-b][1,3,4]thiadiazine] | 16.3 | 92 to 94 | 43.2 | 51.9 |  |  |  |  | 
4 | COc1ccc(-c2nnc3n2N=C(c2ccc(SC)cc2)CS3)c(OC)c1OC [Compound 4g, 3-(2,3,4-Trimethoxyphenyl)-6-(4-methylthiophenyl)-7H-[1,2,4]triazolo[3,4-b][1,3,4]thiadiazine] | 12.5 | 86 to 88 | 8.02 | 2.7 |  |  |  |  | 
5 | COc1ccc(C2=Nn3c(nnc3-c3ccc(OC)c(OC)c3OC)SC2)cc1OCc1ccccc1 [Compound 4k, 3-(2,3,4-Trimethoxyphenyl)-6-(3-benzyloxy-4-methoxyphenyl)-7H-[1,2,4]triazolo[3,4-b][1,3,4]thiadiazine] | 8.9 | 85 to 86 | 28.9 | 28.3 |  |  |  |  | 
6 | COc1ccc(C2=Nn3c(nnc3-c3ccc(OC)c(OC)c3OC)SC2)cc1[N+](=O)[O-] [Compound 4i, 3-(2,3,4-Trimethoxyphenyl)-6-(3-nitro-4-methoxyphenyl)-7H-[1,2,4]triazolo[3,4-b][1,3,4]thiadiazine] | 16.5 | 134 to 136 | 13.2 | 15.9 |  |  |  |  | 
7 | COc1ccc(-c2nnc3n2N=C(c2ccc(Br)cc2)CS3)c(OC)c1OC [Compound 4c, 3-(2,3,4-Trimethoxyphenyl)-6-(4-bromophenyl)-7H-[1,2,4]triazolo[3,4-b][1,3,4]thiadiazines] | 7.37 | 96 to 98 | 5.55 | 3.77 |  |  |  |  | 
8 | COc1ccc(-c2nnc3n2N=C(c2ccc(C(F)(F)F)cc2)CS3)c(OC)c1OC [Compound 4e, 3-(2,3,4-Trimethoxyphenyl)-6-(4-(trifluoromethyl)phenyl)-7H-[1,2,4]triazolo[3,4-b][1,3,4]thiadiazine] | 85.4 | 95 to 96 | 2.42 | 10.5 |  |  |  |  | 
9 | COc1ccc(-c2nnc3n2N=C(c2ccc(F)c(F)c2)CS3)c(OC)c1OC [Compound 4m, 3-(2,3,4-Trimethoxyphenyl)-6-(3,4-difluorophenyl)-7H-[1,2,4]triazolo[3,4-b][1,3,4]thiadiazine] | 78.1 | 95 to 97 | 73.2 | 81.3 |  |  |  |  | 
10 | COc1ccc(C2=Nn3c(nnc3-c3ccc(OC)c(OC)c3OC)SC2)cc1 [Compound 4f, 3-(2,3,4-Trimethoxyphenyl)-6-(4-methoxyphenyl)-7H-[1,2,4]triazolo[3,4-b][1,3,4]thiadiazine] | 50.2 | 92 to 95 | 62.7 | 61.4 |  |  |  |  | 

More lines, main results first:

Row | IC50 ([1]; Homo sapiens, A549) [µM] | melting point [°C] | IC50 ([2]; Homo sapiens, SGC-7901) [µM] | IC50 ([3]; Homo sapiens, HT-1080) [µM] | IC50 [1] [µM] | IC50 [2] [µM] | IC50 [3] [µM] | IC50 ([4]; range over SGC-7901, A549 and HT-1080, read-out: IC50 range against the three human cancer cell lines) [µM] | Structure (SMILES) | antiproliferative activity in words ([4]; SGC-7901, A549 and HT-1080)
11 | 16.3 | 86 to 88 | 8.49 | 7.32 |  |  |  |  | COc1ccc(C2=Nn3c(nnc3-c3ccc4c(c3)OCO4)SC2)cc1OCc1ccccc1 [Compound 6d, 3-(3,4-Methylenedioxyphenyl)-6-(3-benzyloxy-4-methoxyphenyl)-7H-[1,2,4]triazolo[3,4-b][1,3,4]thiadiazine] | 
12 |  |  |  |  | 0.019 | 0.027 | 0.016 | 0.016 to 0.027 | COc1cc(-c2nnc3n2N=C(c2ccc(C)cc2)CS3)cc(OC)c1OC [Compound 5b, 3-(3,4,5-Trimethoxyphenyl)-6-(4-methyphenyl)-7H-[1,2,4]triazolo[3,4-b][1,3,4]thiadiazine] | IC50 values at the nanomolar level
13 | 5.68 | 97 to 99 | 8.04 | 2.32 |  |  |  |  | COc1ccc(-c2nnc3n2N=C(c2ccc(OC)c([N+](=O)[O-])c2)CS3)cc1 [Compound 6j, 3-(4-Methoxyphenyl)-6-(3-nitro-4-methoxyphenyl)-7H-[1,2,4]triazolo[3,4-b][1,3,4]thiadiazine] | 
14 | 7.72 | 105 to 106 | 1.17 | 0.75 |  |  |  |  | COc1cc(-c2nnc3n2N=C(c2ccc(C(F)(F)F)cc2)CS3)cc(OC)c1OC [Compound 5c, 3-(3,4,5-Trimethoxyphenyl)-6-(4-(trifluoromethyl)phenyl)-7H-[1,2,4]triazolo[3,4-b][1,3,4]thiadiazine] | 
15 | 4.2 | 207 to 208 | 2.55 | 1.91 |  |  |  |  | COc1cccc(-c2nnc3n2N=C(c2ccc(OC)c([N+](=O)[O-])c2)CS3)c1 [Compound 6h, 3-(3-Methoxyphenyl)-6-(3-nitro-4-methoxyphenyl)-7H-[1,2,4]triazolo[3,4-b][1,3,4]thiadiazine] | 
16 | 15.7 | 90 to 92 | 10.5 | 0.08 |  |  |  |  | COc1ccc(C2=Nn3c(nnc3-c3ccc4c(c3)OCO4)SC2)cc1[N+](=O)[O-] [Compound 6b, 3-(3,4-Methylenedioxyphenyl)-6-(3-nitro-4-methoxyphenyl)-7H-[1,2,4]triazolo[3,4-b][1,3,4]thiadiazine] | 
17 | 0.19 | 93 to 95 | 0.065 | 0.13 |  |  |  |  | COc1ccc(C2=Nn3c(nnc3-c3ccc4c(c3)OCO4)SC2)cc1F [Compound 6a, 3-(3,4-Methylenedioxyphenyl)-6-(3-fluoro-4-methoxyphenyl)-7H-[1,2,4]triazolo[3,4-b][1,3,4]thiadiazine] | 
18 | 0.46 | 92 to 94 | 0.13 | 0.18 |  |  |  |  | COc1cc(-c2nnc3n2N=C(c2ccc(SC)cc2)CS3)cc(OC)c1OC [Compound 5d, 3-(3,4,5-Trimethoxyphenyl)-6-(4-methylthiophenyl)-7H-[1,2,4]triazolo[3,4-b][1,3,4]thiadiazine] | 
19 | 0.27 | 125 to 127 | 1.37 | 0.88 |  |  |  |  | COc1cc(-c2nnc3n2N=C(c2ccc(Cl)cc2)CS3)cc(OC)c1OC [Compound 5a, 3-(3,4,5-Trimethoxyphenyl)-6-(4-chlorophenyl)-7H-[1,2,4]triazolo[3,4-b][1,3,4]thiadiazine] | 
20 | 2.94 | 93 to 94 | 1.66 | 1.57 |  |  |  |  | COc1ccc(C2=Nn3c(nnc3-c3cc(OC)c(OC)c(OC)c3)SC2)cc1OCc1ccccc1 [Compound 5h, 3-(3,4,5-Trimethoxyphenyl)-6-(3-benzyloxy-4-methoxyphenyl)-7H-[1,2,4]triazolo[3,4-b][1,3,4]thiadiazine] | 
21 | 3.68 | 190 to 192 | 5.04 | 3.32 |  |  |  |  | COc1ccc(-c2nnc3n2N=C(c2ccc(OC)c([N+](=O)[O-])c2)CS3)cc1OC [Compound 6f, 3-(3,4-Dimethoxyphenyl)-6-(3-nitro-4-methoxyphenyl)-7H-[1,2,4]triazolo[3,4-b][1,3,4]thiadiazine] | 
22 | 8.88 | 212 to 213 | 11.3 | 5.76 |  |  |  |  | COc1ccc(C2=Nn3c(nnc3-c3cc(OC)c(OC)c(OC)c3)SC2)cc1[N+](=O)[O-] [Compound 5f, 3-(3,4,5-Trimethoxyphenyl)-6-(3-nitro-4-methoxyphenyl)-7H-[1,2,4]triazolo[3,4-b][1,3,4]thiadiazine] | 
23 | 3.21 | 115 to 118 | 4.28 | 1.31 |  |  |  |  | COc1ccc(C2=Nn3c(nnc3-c3cc(OC)c(OC)c(OC)c3)SC2)cc1F [Compound 5e, 3-(3,4,5-Trimethoxyphenyl)-6-(3-fluoro-4-methoxyphenyl)-7H-[1,2,4]triazolo[3,4-b][1,3,4]thiadiazine] | 
24 | 1.08 | 112 to 115 | 1.25 | 0.18 |  |  |  |  | COc1ccc(C2=Nn3c(nnc3-c3cc(OC)c(OC)c(OC)c3)SC2)cc1N [Compound 5g, 3-(3,4,5-Trimethoxyphenyl)-6-(3-amino-4-methoxyphenyl)-7H-[1,2,4]triazolo[3,4-b][1,3,4]thiadiazine] | 

Source: publication PMC5607265, “Design, synthesis and structure-activity relationship of 3,6-diaryl-7H-[1,2,4]triazolo[3,4-b][1,3,4]thiadiazines as novel tubulin inhibitors” (Scientific Reports, 2017)
